For one compound, Kd results are on record in publication PMC8132114 (ACS combinatorial science, 2019).

*1 amine or outer side, *2 acyl side, *3 side chain or, on linkers, in order; H or OH if unused. Where a SMILES comes first, the peptide text is derived from it. [ ]: non-standard residue; d: D form. The star is where a group is joined. X1 = O=C([C@H](CCON=Cc1c(Cl)cncc1Cl)N[*:1])[*:2]; Biotin = O=C1N[C@H]2[C@H](CS[C@H]2CCCCC(=O)*)N1; pY = N[C@@H](Cc1ccc(OP(=O)(O)O)cc1)C(=O)O; Ahx = NCCCCCC(=O)O

This assay concerns the target VH1 C110S. The class given is binding, Variola major. Particulars: pH 6.2.

For the compound `CC(C)[C@H](NC(=O)CCCCCNC(=O)CCCC[C@@H]1SC[C@@H]2NC(=O)N[C@@H]21)C(=O)N[C@@H](CC(=O)O)C(=O)N[C@@H](C)C(=O)N[C@@H](CC(=O)O)C(=O)N[C@@H](CCC(=O)O)C(=O)N[C@@H](Cc1ccc(OP(=O)(O)O)cc1)C(=O)N[C@@H](CCON=Cc1c(Cl)cncc1Cl)C(N)=O` [Peptide 6f-w202] ({Biotin-Ahx}-VDADE[pY][X1]-NH2), the Kd (in general, a measure of binding affinity in units of concentration) came out at 73 ± 27 nM.
